Activity calls are given as the source filed them. No cut-off for these calls is given here.
Tests used:
[1] = test system: HepG2; test: Cytotoxicity against human HepG2 cells assessed as cell viability at 0.1 to 5 uM measured at 24 hrs by MTT assay; format: functional, cell-based; details: dose 0.1-5 µM
[2] = test system: Hepatocyte; test: Cytotoxicity against mouse Hepatocyte assessed as cell viability at 0.1 to 5 uM measured at 24 hrs by MTT assay; format: toxicity, cell-based; details: hepatocytes, dose 0.1-5 µM
[3] = Induction of copper transporting activity in human HeLa cells assessed as fold increase in intracellular copper levels at 2 uM incubated for 4 hrs by ICP-MS analysis; format: functional
[4] = test system: HepG2; test: Cytotoxicity against human HepG2 cells assessed as cell viability at 0.1 to 5 uM compound administrated as copper complex measured at 24 hrs by MTT assay; format: functional, cell-based; details: dose 0.1-5 µM
[5] = test system: HepG2; test: Anti-NAFLD activity in palmitic acid human HepG2 NAFLD cell model assessed as increase in ROS level at 5 uM compound administrated as copper complex measured at 24 hrs by DCFH-DA probe based flow cytometry analysis; format: functional
[6] = test system: HepG2; test: Anti-NAFLD activity in palmitic acid human HepG2 NAFLD cell model assessed as cell viability at 0.1 to 0.5 uM compound administrated as copper complex measured at 24 hrs by MTT assay; format: functional, cell-based; details: dose 0.1-0.5 µM
[7] = test system: Hepatocyte; test: Cytotoxicity against mouse Hepatocyte assessed as cell viability at 0.1 to 5 uM compound administrated as copper complex measured at 24 hrs by MTT assay; format: toxicity, cell-based; details: hepatocytes, dose 0.1-5 µM

Structure (SMILES)	Activity [1]	Activity [2]	fold change (FC) [3]	Activity [4]	Activity [5]	Activity [6]	Activity [7]
O=c1c(O)c(-c2ccc3c(Cl)ccc(O)c3n2)oc2ccccc12	Active	Non-toxic	~5	Active	Active	Active	Non-toxic
COc1ccc2oc(-c3ccc4cccc(O)c4n3)c(O)c(=O)c2c1	Active	Non-toxic	~5	Active	Active	Active	Non-toxic
